From patent US10829520B2, “Beta-hairpin peptidomimetics” (POLYPHOR AG, priority 2015, dated 2020)
Like-named read-outs stand apart in the source and are kept apart here. Where a SMILES comes first, the peptide text is derived from it. Bridges are numbered along the chain shown (N, C = ends). Roman numbers before positions name the chains, in order. [ ]: non-standard residue; d: D form. Tle = CC(C)(C)[C@H](N)C(=O)O; NMeC = CN[C@@H](CS)C(=O)O; dDab = NCC[C@@H](N)C(=O)O; hSer = N[C@@H](CCO)C(=O)O; Nle = CCCC[C@H](N)C(=O)O; Orn = NCCC[C@H](N)C(=O)O; Dab = NCC[C@H](N)C(=O)O; Dap = NC[C@H](N)C(=O)O; Sar = CNCC(=O)O

What was measured:
Type in all cases: cell-based
[1] = tested on: human red blood cells (hRBC); experiment: Hemolysis of human red blood cells
How it was run: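 Peptides at 100 μg/mL were incubated with PBS-washed fresh human erythrocytes (20% v/v, ~0.9×10^9 cells/mL final) for 1 h at 37° C. with shaking. Supernatant OD540 was read after 8-fold dilution; percent hemolysis was expressed relative to the 2.5% Triton X-100 full-lysis control, with PBS/0.001% acetic acid as 0%.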

[2] = tested on: Escherichia coli 926415
[3] = tested on: Klebsiella pneumoniae 968733
[4] = tested on: Pseudomonas aeruginosa ATCC 27853
How it was run: (§1)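 Broth microdilution per CLSI, cation-adjusted MH-II medium, 0.002% (v/v) polysorbate 80 final. Approx. 10^6 CFU/mL inoculum, incubated 35° C for 18-20 h; MIC read as absence of visible growth.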

[5] = tested on: Escherichia coli ATCC 25922
How it was run: as §1

[6] = tested on: Acinetobacter baumannii 872842
[7] = tested on: Acinetobacter baumannii DSM 30008
How it was run: as §1

[8] = tested on: Klebsiella pneumoniae SSI #3010
How it was run: as §1

[9] = red cells of human, 1 h, 100 μg/mL
[10] = clinical isolate, Mueller-Hinton II broth, P-80 0.002% present

SMILES	Hemolysis at 100 μg/mL ([1]; red cells of human, 1 h, 100) [%]	Escherichia coli 926415 MIC [2]; 926415 [µg/mL]	Klebsiella pneumoniae 968733 MIC [3]; 968733 [µg/mL]	Pseudomonas aeruginosa ATCC 27853 MIC ([4]; ATCC 27853) [µg/mL]	Escherichia coli ATCC 25922 MIC ([5]; ATCC 25922) [µg/mL]	Acinetobacter baumannii 872842 MIC [6]; 872842 [µg/mL]	Acinetobacter baumannii DSM 30008 MIC ([7]; DSM 30008) [µg/mL]	Klebsiella pneumoniae SSI #3010 MIC ([8]; SSI #3010) [µg/mL]	Hemolysis at 100 μg/mL [1, 9] [%]	Hemolysis at 100 μg/mL ([1]; 100 μg/mL, 20% hRBC, 1 h at 37° C.) [%]	Escherichia coli 926415 MIC [2, 10] [µg/mL]	Klebsiella pneumoniae 968733 MIC [3, 10] [µg/mL]	Pseudomonas aeruginosa ATCC 27853 MIC ([4]; Mueller-Hinton II broth) [µg/mL]	Escherichia coli ATCC 25922 MIC ([5]; Mueller-Hinton II broth) [µg/mL]	Acinetobacter baumannii 872842 MIC [6, 10] [µg/mL]	Acinetobacter baumannii DSM 30008 MIC ([7]; Mueller-Hinton II broth) [µg/mL]	Klebsiella pneumoniae SSI #3010 MIC ([8]; Mueller-Hinton II broth) [µg/mL]
CC(C)C[C@@H]1NC(=O)[C@@H](CC(C)C)NC(=O)[C@H](CCN)NC(=O)[C@@H](NC(=O)[C@H](CCN)NC(=O)[C@@H](NC(=O)[C@H](CCN)NC(=O)CC[C@@H]2NC(=O)[C@H](CCN)NC(=O)[C@H](Cc3ccc(O)cc3)NC(=O)[C@H]([C@@H](C)O)NC(=O)[C@H](C(C)C)NC(=O)[C@@H]3CCCN3C(=O)[C@@H](C)NC(=O)[C@H](CO)NC(=O)[C@H](C)NC(=O)[C@H](C(C)(C)C)NC(=O)[C@H](CCO)NC(=O)[C@H](Cc3c[nH]c4ccccc34)NC(=O)[C@H](CCO)NC(=O)[C@@H](CCN)NC2=O)[C@@H](C)O)CCNC(=O)[C@H]([C@@H](C)O)NC(=O)[C@H](CCN)NC(=O)[C@H](CCN)NC1=O [Ex. 103] (I: cyclo([dDab][hSer]W[hSer][Tle]AS[dA]PVTY[Dab]E) / II: [Dab]T[Dab][Dab][Dab][dL]L[Dab][Dab]T; amide I:14-II:N; lactam II:4-II:C)	1	0.125	0.0625	0.125	0.625	0.25	0.0625	0.0625									
CCCC[C@@H]1NC(=O)[C@@H]2CCCN2C(=O)[C@H]2CCCN2C(=O)[C@H](CO)NC(=O)[C@H](C)NC(=O)[C@H](C(C)(C)C)NC(=O)[C@H](CCN)NC(=O)[C@H](Cc2c[nH]c3ccccc23)NC(=O)[C@H](CCN)NC(=O)[C@@H](CCN)NC(=O)[C@H](CCC(=O)N[C@@H](CCN)C(=O)N[C@@H](C(=O)N[C@@H](CCN)C(=O)N[C@H]2CCNC(=O)[C@H]([C@@H](C)O)NC(=O)[C@H](CCN)NC(=O)[C@H](CCN)NC(=O)[C@H](CC(C)C)NC(=O)[C@@H](Cc3ccccc3)NC(=O)[C@H](CCN)NC2=O)[C@H](C)O)NC(=O)[C@H](CCN)NC(=O)[C@H](Cc2ccc(O)cc2)NC(=O)[C@H](CO)NC1=O [Ex. 81] (I: cyclo(W[Dab][Tle]AS[dP]P[Nle]SY[Dab]E[dDab][Dab]) / II: [Dab][dT][Dab][Dab][Dab][dF]L[Dab][Dab]T; amide I:12-II:N; lactam II:4-II:C)	1	0.5	2	0.5	0.5	2	1	1									
CC(=O)N[C@@H](Cc1c[nH]c2ccccc12)C(=O)N[C@H]1CSSC[C@@H](C(=O)N[C@@H](CCCN)C(=O)N[C@H](C(=O)N[C@@H](CCN)C(=O)N[C@H]2CCNC(=O)[C@H]([C@@H](C)O)NC(=O)[C@H](CCN)NC(=O)[C@H](CCN)NC(=O)[C@H](CC(C)C)NC(=O)[C@@H](Cc3ccccc3)NC(=O)[C@H](CCN)NC2=O)[C@@H](C)O)NC(=O)[C@H](Cc2ccc(O)cc2)NC(=O)CNC(=O)[C@H](CC(C)C)NC(=O)[C@@H]2CCCN2C(=O)[C@H]2CCCN2C(=O)[C@H](CO)NC(=O)[C@H](CN)NC(=O)[C@H](C(C)(C)C)NC1=O [Ex. 117] (Ac-WC[Tle][Dap]S[dP]PLGYC[Orn]T[Dab][Dab][Dab][dF]L[Dab][Dab]T; disulfide 2-11; lactam 15-C)		0.25	2	2	0.5	0.125	0.25	1	<1								
CCCC[C@@H]1NC(=O)[C@@H]2CCCN2C(=O)[C@H]2CCCN2C(=O)[C@H](CO)NC(=O)[C@H](CC(N)=O)NC(=O)[C@H](C(C)(C)C)NC(=O)[C@H](CCN)NC(=O)[C@H](Cc2c[nH]c3ccccc23)NC(=O)[C@@H](NC)CSSC[C@@H](C(=O)N(C)CC(=O)N[C@H](CCN)C(=O)N[C@@H](CCN)C(=O)N[C@H]2CCNC(=O)[C@H]([C@@H](C)O)NC(=O)[C@H](CCN)NC(=O)[C@H](CCN)NC(=O)[C@H](CC(C)C)NC(=O)[C@@H](CC(C)C)NC(=O)[C@H](CCN)NC2=O)NC(=O)[C@H](CCCN)NC(=O)[C@H](CCN)NC(=O)[C@H](Cc2ccc(O)cc2)NC(=O)[C@H](CN)NC1=O [Ex. 214] (H-[NMeC]W[Dab][Tle]NS[dP]P[Nle][Dap]Y[Dab][Orn]C[Sar][dDab][Dab][Dab][Dab][dL]L[Dab][Dab]T; disulfide 1-14; lactam 18-C)		2	8	0.5	0.5	0.5	2	1	1								
CCCC[C@@H]1NC(=O)[C@@H]2CCCN2C(=O)[C@H]2CCCN2C(=O)[C@H]([C@@H](C)O)NC(=O)[C@H](CO)NC(=O)[C@H](C(C)(C)C)NC(=O)[C@@H](NC(=O)[C@H](Cc2c[nH]c3ccccc23)NC(C)=O)CSSC[C@@H](C(=O)N[C@@H](CCN)C(=O)N[C@H](C(=O)N[C@@H](CCN)C(=O)N[C@H]2CCNC(=O)[C@H]([C@@H](C)O)NC(=O)[C@H](CCN)NC(=O)[C@H](CCN)NC(=O)[C@H](CC(C)C)NC(=O)[C@@H](Cc3ccccc3)NC(=O)[C@H](CCN)NC2=O)[C@@H](C)O)NC(=O)[C@H](Cc2ccc(O)cc2)NC(=O)[C@H](C)NC1=O [Ex. 18] (Ac-WC[Tle]ST[dP]P[Nle]AYC[Dab]T[Dab][Dab][Dab][dF]L[Dab][Dab]T; disulfide 2-11; lactam 15-C)										6	0.5	0.5	0.5	0.125	1	0.25	2
CCCC[C@@H]1NC(=O)[C@@H]2CCCN2C(=O)[C@H]2CCCN2C(=O)[C@H](CO)NC(=O)[C@H](C)NC(=O)[C@H](C(C)(C)C)NC(=O)[C@@H](NC(=O)[C@H](Cc2c[nH]c3ccccc23)NC(C)=O)CSSC[C@@H](C(=O)N[C@@H](CCN)C(=O)NCC(=O)N[C@@H](CCN)C(=O)N[C@H]2CCNC(=O)[C@H]([C@@H](C)O)NC(=O)[C@H](CCN)NC(=O)[C@H](CCN)NC(=O)[C@H](CC(C)C)NC(=O)[C@@H](Cc3ccccc3)NC(=O)[C@H](CCN)NC2=O)NC(=O)[C@H](Cc2ccc(O)cc2)NC(=O)[C@H](CO)NC1=O [Ex. 22] (Ac-WC[Tle]AS[dP]P[Nle]SYC[Dab]G[Dab][Dab][Dab][dF]L[Dab][Dab]T; disulfide 2-11; lactam 15-C)		0.5	1	0.25	0.125	0.125	0.5	0.25	<1								
